Test results taken from ChEMBL document CHEMBL1671827, “Discovery of MK-5046, a Potent, Selective Bombesin Receptor Subtype-3 Agonist for the Treatment of Obesity” (ACS Med Chem Lett, 2011).
Calls of active or inactive are those of the source. No cut-off for these calls is given here.

Columns and labels:
[1] = molecular target: T1, Bombesin receptor subtype-3 (Homo sapiens, UniProt P32247); assay: Displacement of [125I]-[D-Tyr6,beta-Ala11,Phe13,Nle14]-Bombesin (6-14) from human BRS-3
T1 sequence (P32247 whole entry): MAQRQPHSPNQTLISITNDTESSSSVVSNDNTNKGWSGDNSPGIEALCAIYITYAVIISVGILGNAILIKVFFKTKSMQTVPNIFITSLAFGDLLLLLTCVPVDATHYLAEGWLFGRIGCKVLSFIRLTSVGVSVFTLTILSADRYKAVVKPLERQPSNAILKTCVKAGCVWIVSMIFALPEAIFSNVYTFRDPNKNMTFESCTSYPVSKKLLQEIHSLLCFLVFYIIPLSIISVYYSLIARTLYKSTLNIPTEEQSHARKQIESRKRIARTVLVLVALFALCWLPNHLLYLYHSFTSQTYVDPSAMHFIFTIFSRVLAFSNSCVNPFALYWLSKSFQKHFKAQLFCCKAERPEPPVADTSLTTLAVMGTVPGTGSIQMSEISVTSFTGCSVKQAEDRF

[2] = molecular target: T1, Bombesin receptor subtype-3; assay: Agonist activity at human BRS-3 expressed in HEK293AEQ cells assessed as induction of intracellular calcium mobilization by aequorin bioluminescence assay; type: functional, cell-based
[3] = Half life in rat liver microsomes
[4] = molecular target: Voltage-gated inwardly rectifying potassium channel KCNH2 (Homo sapiens, UniProt Q12809); assay: Binding affinity to human ERG
Chain of Voltage-gated inwardly rectifying potassium channel KCNH2 (Q12809 whole entry): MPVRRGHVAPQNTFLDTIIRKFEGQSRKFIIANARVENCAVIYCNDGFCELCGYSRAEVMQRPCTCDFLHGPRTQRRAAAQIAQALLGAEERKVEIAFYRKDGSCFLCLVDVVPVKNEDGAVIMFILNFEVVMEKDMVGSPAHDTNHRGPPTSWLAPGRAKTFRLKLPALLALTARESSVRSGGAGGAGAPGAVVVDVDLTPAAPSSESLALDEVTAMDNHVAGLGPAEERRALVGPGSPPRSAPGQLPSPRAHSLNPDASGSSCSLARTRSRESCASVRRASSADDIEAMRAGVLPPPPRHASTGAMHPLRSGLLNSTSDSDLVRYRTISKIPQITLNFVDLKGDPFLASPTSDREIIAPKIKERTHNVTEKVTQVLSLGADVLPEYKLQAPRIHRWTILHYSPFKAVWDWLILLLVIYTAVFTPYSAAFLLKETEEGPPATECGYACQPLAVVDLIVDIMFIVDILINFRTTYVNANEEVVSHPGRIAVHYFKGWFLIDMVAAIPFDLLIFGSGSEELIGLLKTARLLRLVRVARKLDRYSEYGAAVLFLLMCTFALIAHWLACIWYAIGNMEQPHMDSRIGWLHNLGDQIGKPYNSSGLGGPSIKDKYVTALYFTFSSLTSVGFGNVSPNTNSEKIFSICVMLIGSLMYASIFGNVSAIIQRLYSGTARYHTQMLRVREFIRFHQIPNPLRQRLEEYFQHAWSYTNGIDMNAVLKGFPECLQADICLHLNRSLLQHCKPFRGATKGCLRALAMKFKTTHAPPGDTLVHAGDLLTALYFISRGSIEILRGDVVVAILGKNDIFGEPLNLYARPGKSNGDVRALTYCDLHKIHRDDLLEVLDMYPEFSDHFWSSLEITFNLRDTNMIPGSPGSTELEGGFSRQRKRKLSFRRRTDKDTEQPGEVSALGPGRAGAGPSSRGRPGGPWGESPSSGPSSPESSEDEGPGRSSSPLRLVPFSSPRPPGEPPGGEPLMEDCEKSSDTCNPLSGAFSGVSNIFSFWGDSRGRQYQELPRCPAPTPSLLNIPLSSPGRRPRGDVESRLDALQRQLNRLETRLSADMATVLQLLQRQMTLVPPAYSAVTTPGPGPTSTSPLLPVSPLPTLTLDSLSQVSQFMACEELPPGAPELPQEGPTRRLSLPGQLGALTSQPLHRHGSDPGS

[5] = Plasma clearance in rat at 1 mg/kg, iv; type: ADME, organism-based; set-up: dose 1 mg/kg, route intravenous
[6] = Faction unbound in human plasma at 1 uM; type: ADME, cell-free
[7] = Fraction unbound in rat plasma at 1 uM; type: ADME, cell-free
Neuromedin-B receptor = Neuromedin-B receptor (Homo sapiens, UniProt P28336); assay: Inhibition of human NMBR
Chain of Neuromedin-B receptor (P28336 whole entry): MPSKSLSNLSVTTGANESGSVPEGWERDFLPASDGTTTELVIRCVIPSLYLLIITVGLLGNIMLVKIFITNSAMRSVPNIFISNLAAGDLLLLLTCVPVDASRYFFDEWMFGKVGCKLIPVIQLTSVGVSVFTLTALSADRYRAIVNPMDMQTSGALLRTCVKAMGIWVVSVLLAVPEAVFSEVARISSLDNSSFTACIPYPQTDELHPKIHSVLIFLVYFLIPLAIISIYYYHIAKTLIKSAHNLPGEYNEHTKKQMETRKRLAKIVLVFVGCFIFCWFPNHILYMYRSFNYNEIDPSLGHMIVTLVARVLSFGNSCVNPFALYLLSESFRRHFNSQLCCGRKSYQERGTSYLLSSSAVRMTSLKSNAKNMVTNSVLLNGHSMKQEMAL

[8] = molecular target: Gastrin-releasing peptide receptor (Homo sapiens, UniProt P30550); assay: Inhibition of human GRPR
Chain of Gastrin-releasing peptide receptor (P30550 whole entry): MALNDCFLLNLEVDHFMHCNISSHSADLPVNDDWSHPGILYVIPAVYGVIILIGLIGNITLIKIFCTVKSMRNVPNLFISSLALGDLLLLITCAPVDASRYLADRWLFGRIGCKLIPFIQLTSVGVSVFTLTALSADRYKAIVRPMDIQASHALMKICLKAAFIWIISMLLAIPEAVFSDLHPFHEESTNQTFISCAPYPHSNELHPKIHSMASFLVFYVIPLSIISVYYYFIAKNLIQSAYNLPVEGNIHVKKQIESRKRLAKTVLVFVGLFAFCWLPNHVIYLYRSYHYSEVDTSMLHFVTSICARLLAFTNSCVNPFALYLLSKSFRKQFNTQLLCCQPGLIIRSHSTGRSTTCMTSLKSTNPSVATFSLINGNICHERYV

[9] = Inhibition of human calcium channel diltiazem binding site
[10] = molecular target: T2, Nuclear receptor subfamily 1 group I member 2 (Homo sapiens, UniProt O75469)
T2 sequence (O75469 whole entry): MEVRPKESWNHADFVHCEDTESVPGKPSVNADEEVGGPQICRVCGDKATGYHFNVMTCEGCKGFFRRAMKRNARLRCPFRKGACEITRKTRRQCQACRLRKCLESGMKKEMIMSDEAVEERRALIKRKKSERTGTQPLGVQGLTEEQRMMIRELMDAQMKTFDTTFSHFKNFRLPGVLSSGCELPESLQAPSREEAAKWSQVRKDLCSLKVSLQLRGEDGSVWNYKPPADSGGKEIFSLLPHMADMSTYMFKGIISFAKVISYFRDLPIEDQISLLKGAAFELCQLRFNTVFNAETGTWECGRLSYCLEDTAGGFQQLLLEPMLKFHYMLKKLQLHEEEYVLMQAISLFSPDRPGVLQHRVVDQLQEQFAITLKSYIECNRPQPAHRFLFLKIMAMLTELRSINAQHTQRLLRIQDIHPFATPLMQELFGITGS

[11] = Plasma clearance in dog at 0.5 mg/kg, iv; type: ADME, organism-based, Canis lupus familiaris; set-up: dose 0.5 mg/kg, route intravenous
[12] = Half life in dog at 0.5 mg/kg, iv; type: ADME, organism-based, Canis lupus familiaris; set-up: dose 0.5 mg/kg, route intravenous; details: in vivo
[13] = Oral bioavailability in dog at 1 mg/kg; type: ADME, organism-based, Canis lupus familiaris; details: in vivo
[14] = molecular target: T3, Bombesin receptor subtype-3 (Mus musculus, UniProt O54798); assay: Displacement of [3H]Bag-3 from mouse BRS-3
T3 sequence (O54798 whole entry): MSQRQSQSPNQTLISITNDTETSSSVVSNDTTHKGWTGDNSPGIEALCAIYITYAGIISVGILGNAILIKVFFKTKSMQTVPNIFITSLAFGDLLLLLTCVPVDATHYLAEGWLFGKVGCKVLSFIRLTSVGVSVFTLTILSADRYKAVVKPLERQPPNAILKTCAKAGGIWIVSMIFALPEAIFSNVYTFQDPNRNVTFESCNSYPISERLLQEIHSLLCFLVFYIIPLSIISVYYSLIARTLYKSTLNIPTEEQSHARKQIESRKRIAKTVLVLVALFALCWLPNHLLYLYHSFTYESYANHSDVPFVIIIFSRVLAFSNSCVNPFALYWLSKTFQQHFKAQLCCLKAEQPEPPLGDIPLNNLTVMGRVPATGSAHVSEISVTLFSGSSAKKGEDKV

[15] = molecular target: T4, Bombesin receptor subtype-3 (Rattus norvegicus, UniProt Q8K418); assay: Displacement of [3H]Bag-3 from rat BRS-3
T4 sequence (Q8K418 whole entry): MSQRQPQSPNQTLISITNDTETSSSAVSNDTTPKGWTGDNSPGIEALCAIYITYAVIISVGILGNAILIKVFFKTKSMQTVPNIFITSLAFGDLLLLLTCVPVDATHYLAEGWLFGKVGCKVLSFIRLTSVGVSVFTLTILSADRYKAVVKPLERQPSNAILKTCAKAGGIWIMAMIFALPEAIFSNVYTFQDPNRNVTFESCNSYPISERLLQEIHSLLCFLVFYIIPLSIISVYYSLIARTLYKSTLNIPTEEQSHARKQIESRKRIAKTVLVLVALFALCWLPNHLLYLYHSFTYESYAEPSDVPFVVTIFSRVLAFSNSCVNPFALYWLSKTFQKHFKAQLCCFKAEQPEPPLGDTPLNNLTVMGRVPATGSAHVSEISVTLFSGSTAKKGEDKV

[16] = Binding affinity to dog BRS-3; set-up: species or system Canis lupus familiaris
[17] = Binding affinity to rhesus monkey BRS-3; set-up: species or system Macaca mulatta
[18] = molecular target: T3, Bombesin receptor subtype-3; assay: Agonist activity at mouse BRS-3 expressed in HEK293AEQ cells assessed as induction of intracellular calcium mobilization by aequorin bioluminescence assay; type: functional, cell-based
[19] = molecular target: T4, Bombesin receptor subtype-3; assay: Agonist activity at rat BRS-3 expressed in HEK293AEQ cells assessed as induction of intracellular calcium mobilization by aequorin bioluminescence assay; type: functional, cell-based
[20] = Agonist activity at dog BRS-3 expressed in HEK293AEQ cells assessed as induction of intracellular calcium mobilization by aequorin bioluminescence assay; type: functional, cell-based; details: Canis lupus familiaris
[21] = Agonist activity at dog BRS-3 expressed in HEK293AEQ cells assessed as induction of intracellular calcium mobilization by aequorin bioluminescence assay relative to dY peptide; details: Canis lupus familiaris
[22] = Agonist activity at rhesus monkey BRS-3 expressed in HEK293AEQ cells assessed as induction of intracellular calcium mobilization by aequorin bioluminescence assay; type: functional, cell-based; details: Macaca mulatta
[23] = Agonist activity at rhesus monkey BRS-3 expressed in HEK293AEQ cells assessed as induction of intracellular calcium mobilization by aequorin bioluminescence assay relative to dY peptide; details: Macaca mulatta
[24] = Oral bioavailability in mouse at 2 mg/kg, po; type: ADME, organism-based; details: in vivo
[25] = Plasma clearance in mouse at 1 mg/kg, iv; type: ADME, organism-based; set-up: dose 1 mg/kg, route intravenous
[26] = Volume of distribution at steady state in mouse at 1 mg/kg, iv; type: ADME, organism-based; set-up: dose 1 mg/kg, route intravenous; details: in vivo, read-out: Vdss
[27] = Half life in mouse at 1 mg/kg, iv; type: ADME, organism-based; set-up: dose 1 mg/kg, route intravenous; details: in vivo
[28] = Oral bioavailability in rat at 2 mg/kg; type: ADME, organism-based; details: in vivo
[29] = Volume of distribution at steady state in rat at 1 mg/kg, iv; type: ADME, organism-based; set-up: dose 1 mg/kg, route intravenous; details: in vivo, read-out: Vdss
[30] = Half life in rat at 1 mg/kg, iv; type: ADME, organism-based; set-up: dose 1 mg/kg, route intravenous; details: in vivo
[31] = Volume of distribution at steady state in dog at 0.5 mg/kg, iv; type: ADME, organism-based, Canis lupus familiaris; set-up: dose 0.5 mg/kg, route intravenous; details: in vivo, read-out: Vdss
[32] = Oral bioavailability in rhesus monkey at 1 mg/kg; type: ADME, organism-based, Macaca mulatta; details: in vivo
[33] = Plasma clearance in rhesus monkey at 0.5 mg/kg, iv; type: ADME, organism-based, Macaca mulatta; set-up: dose 0.5 mg/kg, route intravenous
[34] = Volume of distribution at steady state in rhesus monkey at 0.5 mg/kg, iv; type: ADME, organism-based, Macaca mulatta; set-up: dose 0.5 mg/kg, route intravenous; details: in vivo, read-out: Vdss
[35] = Half life in rhesus monkey at 0.5 mg/kg, iv; type: ADME, organism-based, Macaca mulatta; set-up: dose 0.5 mg/kg, route intravenous; details: in vivo
Mus musculus [36] = organism: Mus musculus; assay: Antiobesity activity in wild type mouse assessed as reduction of food intake; type: functional, organism-based
Mus musculus [37] = organism: Mus musculus; assay: Antiobesity activity in wild type mouse assessed as increase of fasting metabolic rate; type: functional, organism-based
Mus musculus [38] = organism: Mus musculus; assay: Antiobesity activity in BRS3 deficient mouse assessed as reduction of food intake; type: functional, organism-based
Mus musculus [39] = organism: Mus musculus; assay: Antiobesity activity in BRS3 deficient mouse assessed as increase of fasting metabolic rate; type: functional, organism-based
Mus musculus [40] = assay: Antiobesity activity in eDIO mouse assessed as reduction of body weight at 25 mg/kg, sc relative to control; type: functional; set-up: scale not given: the % may be the effect or the level left; details: route subcutaneous
Mus musculus [41] = assay: Antiobesity activity in eDIO mouse assessed as reduction of body weight at 25 mg/kg, sc after 14 days; type: functional, organism-based; set-up: dose 25 mg/kg

Compound `CC(C)(C)Cc1c[nH]c(CC(C)(O)c2ccc(-c3ccc(F)cn3)cc2)n1` (stereo not drawn) has an IC50 [1] of 17 nM, an EC50 [2] of 67 nM and a half-life [3] of 5 min. It also gave a Ki [4] of 4200 nM, a clearance [5] of 28 mL/min/kg and a fraction unbound at 1 µM [6] of 0.004. The fraction unbound at 1 µM [7] was 0.2, the IC50 (Neuromedin-B receptor) was > 10000 nM and the IC50 [8] was > 10000 nM. For the same compound, the IC50 [9] was 1900 nM and the EC50 [10] was > 25000 nM.
`CC(C)(C)Cc1c[nH]c(CC(C)(O)c2ccc(-n3cccn3)cc2)n1` (stereo not drawn) gave an IC50 [1] of 5 nM, an EC50 [2] of 16 nM and a clearance [5] of 110 mL/min/kg. The fraction unbound at 1 µM [6] was 0.068.
`CC(C)(C)Cc1c[nH]c(C(C)(O)Cc2ccc(-c3ccc(F)cn3)cc2)n1` (stereo not drawn) showed an IC50 [1] of 82 nM, an EC50 [2] of 220 nM and a half-life [3] of 1 min. It also gave a Ki [4] of 5900 nM, a clearance [5] of 14 mL/min/kg and a fraction unbound at 1 µM [6] of 0.001. It also gave a fraction unbound at 1 µM [7] of 0.2.
Compound `CC(O)(Cc1nc(CC2(C(F)(F)F)CC2)c[nH]1)c1ccc(-n2cccn2)cc1` (stereo not drawn) has an IC50 [1] of 11 nM, an EC50 [2] of 14 nM and a clearance [5] of 52 mL/min/kg. The fraction unbound at 1 µM [6] was 0.032, the clearance [11] was 10 mL/min/kg and the half-life [12] was 18 min. For the same compound, the bioavailability [13] was 29%.
For `CCC(C)(C)Cc1cnc(CCc2ccc(-c3ccc(F)cn3)cc2)[nH]1`, the IC50 [1] was 16 nM, the half-life [3] was 3 min and the clearance [5] was 12 mL/min/kg.
Work on `O[C@@](Cc1nc(CC2(C(F)(F)F)CC2)c[nH]1)(c1ccc(-n2cccn2)cc1)C(F)(F)F` yielded an IC50 [1] of 27 nM, a Ki [1] of 3.7 nM and an EC50 [2] of 14 nM. The Ki [4] was > 8000 nM, the clearance [5] was 20 mL/min/kg and the fraction unbound at 1 µM [6] was 0.01. The clearance [11] was 5.6 mL/min/kg, the half-life [12] was 84 min and the bioavailability [13] was 52%. It also gave an IC50 [14] of 5.4 nM, a Ki [14] of 1.6 nM and an IC50 [15] of 1.2 nM. It also gave a Ki [15] of 0.6 nM, an IC50 [16] of 6.5 nM and a Ki [16] of 9.9 nM. It also gave an IC50 [17] of 50 nM, a Ki [17] of 2.4 nM and an EC50 [18] of 21 nM. For the same compound, the EC50 [19] was 2.2 nM, the EC50 [20] was 1.6 nM and the Emax [21] was 100%. The EC50 [22] was 6.9 nM, the Emax [23] was 110% and the bioavailability [24] was 9.6%. It also gave a clearance [25] of 32 mL/min/kg, a Vd [26] of 2.2 L/kg and a half-life [27] of 66 min. It also gave a bioavailability [28] of 64%, a Vd [29] of 0.98 L/kg and a half-life [30] of 42 min. It also gave a Vd [31] of 0.45 L/kg, a bioavailability [32] of 18% and a clearance [33] of 8.8 mL/min/kg. The Vd [34] was 0.44 L/kg, the half-life [35] was 60 min and the Activity (Mus musculus [36]) was “Active”. The Activity (Mus musculus [37]) was “Active”, the Activity (Mus musculus [38]) was “inactive” and the Activity (Mus musculus [39]) was “inactive”. The Activity (Mus musculus [40]) was 8% and the Activity (Mus musculus [41]) was “Active”.
